{"source": "patent US10167262B2", "about": "“Herbicidal substituted 3-arylpyrazoles” (FMC CORPORATION, priority 2014, dated 2019)", "assay_in_all_cases": "Test E pre-/postemergence greenhouse test, plant response rating 0-100", "format_in_all_cases": "in vivo", "key": {"[1]": {"tested_on": "Brazilian crabgrass (Digitaria horizontalis)", "conditions": "Digitaria horizontalis, post-emergence, Postemergence, scale 0 to 100, read-out: Plant response rating, Crabgrass, Brazil", "description": "(§1) Seeds of plant species selected from corn (Zea mays), soybean (Glycine max), velvetleaf (Abutilon theophrasti), lambsquarters (Chenopodium album), wild poinsettia (Euphorbia heterophylla), palmer pigweed (Amaranthus palmeri), waterhemp (common waterhemp, Amaranthus rudis), surinam grass (Brachiaria decumbens), large (Lg) crabgrass (Digitaria sanguinalis), Brazilian crabgrass (Digitaria horizontalis), fall panicum (Panicum dichotomiflorum), giant foxtail (Setaria faberii), green foxtail (Setaria viridis), goosegrass (Eleusine indica), johnsongrass (Sorghum halepense), ragweed (common ragweed, Ambrosia elatior), barnyardgrass (Echinochloa crus-galli), sandbur (southern sandbur, Cenchrus echinatus), arrowleaf sida (Sida rhombifolia), Italian ryegrass (Lolium multiflorum), dayflower (Virginia (VA) dayflower, Commelina virginica), field bindweed (Convolvulus arvensis), morningglory (Ipomoea coccinea), nightshade (eastern black nightshade, Solanum ptycanthum), kochia (Kochia scoparia), yellow nutsedge (Cyperus esculentus), smartweed (ladysthumb smartweed, Polygonum persicaria), cocklebur (common cocklebur, Xanthium strumarium), and hairy beggarticks (Bidens pilosa), were planted into a silt loam soil and treated preemergence with test chemicals formulated in a non-phytotoxic solvent mixture which included a surfactant.\n(§2) At the same time, plants from these crop and weed species and also waterhemp_RES1, (ALS & Triazine resistant common waterhemp, Amaranthus rudis), and waterhemp_RES2, (ALS & HPPD resistant common waterhemp, Amaranthus rudis) were planted in pots containing Redi-Earth® planting medium (Scotts Company, 14111 Scottslawn Road, Marysville, Ohio 43041) comprising spaghnum peat moss, vermiculite, wetting agent and starter nutrients were treated with postemergence applications of test chemicals formulated in the same manner. Plants ranged in height from 2 to 18 cm for postemergence treatments (1- to 4-leaf stage).\n(§3) Treated plants and controls were maintained in a greenhouse for 14 to 21 days, after which time all species were compared to controls and visually evaluated. Plant response ratings, summarized in Table E, are based on a scale of 0 to 100 where 0 is no effect and 100 is complete control. A dash (-) response means no test result."}, "[2]": {"tested_on": "Italian ryegrass (Lolium multiflorum)", "conditions": "Lolium multiflorum, post-emergence, Postemergence, scale 0 to 100", "description": "as §1, §2, §3"}, "[3]": {"tested_on": "arrowleaf sida (Sida rhombifolia)", "conditions": "Sida rhombifolia, post-emergence, Postemergence", "description": "as §1, §2, §3"}, "[4]": {"tested_on": "barnyardgrass (Echinochloa crus-galli)", "conditions": "Echinochloa crus-galli, post-emergence, Postemergence, scale 0 to 100", "description": "as §1, §2, §3"}, "corn (Zea mays)": {"tested_on": "corn (Zea mays)", "conditions": "Zea mays, post-emergence, Postemergence, scale 0 to 100", "description": "as §1, §2, §3"}, "[5]": {"tested_on": "dayflower (Virginia (VA) dayflower, Commelina virginica)", "conditions": "Commelina virginica, post-emergence, Postemergence, scale 0 to 100", "description": "as §1, §2, §3"}, "[6]": {"tested_on": "field bindweed (Convolvulus arvensis)", "conditions": "Convolvulus arvensis, post-emergence, Postemergence, scale 0 to 100", "description": "as §1, §2, §3"}, "[7]": {"tested_on": "palmer pigweed (Amaranthus palmeri)", "conditions": "Amaranthus palmeri, post-emergence, Postemergence, scale 0 to 100", "description": "as §1, §2, §3"}, "[8]": {"tested_on": "sandbur (southern sandbur, Cenchrus echinatus)", "conditions": "Cenchrus echinatus, post-emergence, Postemergence, scale 0 to 100", "description": "as §1, §2, §3"}, "[9]": {"tested_on": "waterhemp (common waterhemp, Amaranthus rudis)", "conditions": "Amaranthus tuberculatus, post-emergence, Postemergence, scale 0 to 100", "description": "as §1, §2, §3"}, "[10]": {"tested_on": "wild poinsettia (Euphorbia heterophylla)", "conditions": "Euphorbia heterophylla, post-emergence, read-out: Plant response rating, Poinsettia, Wild", "description": "as §1, §2, §3"}}}
{"smiles": "CCCn1cc(C(=O)c2ccccc2)c(-c2cc(Cl)cc(Cl)c2)n1", "note": "[Compound 61, [3-(3,5-dichlorophenyl)-1-propyl-1H-pyrazol-4-yl]phenylmethanone]", "values": [{"measurement": "pest or weed control at 31 g/ha", "setting": "[1]; 31 g ai/ha", "result": 0, "unit": "%"}, {"measurement": "pest or weed control at 62 g/ha", "setting": "[1]; 62 g ai/ha", "result": 0, "unit": "%"}, {"measurement": "pest or weed control at 125 g/ha", "setting": "[1]; 125 g ai/ha", "result": 0, "unit": "%"}, {"measurement": "pest or weed control at 250 g/ha", "setting": "[1]; 250 g ai/ha", "result": 0, "unit": "%"}, {"measurement": "pest or weed control at 500 g/ha", "setting": "[1]; 500 g ai/ha", "result": 0, "unit": "%"}, {"measurement": "pest or weed control at 31 g/ha", "setting": "[2]; 31 g ai/ha", "result": 0, "unit": "%"}, {"measurement": "pest or weed control at 62 g/ha", "setting": "[2]; 62 g ai/ha", "result": 0, "unit": "%"}, {"measurement": "pest or weed control at 125 g/ha", "setting": "[2]; 125 g ai/ha", "result": 0, "unit": "%"}, {"measurement": "pest or weed control at 250 g/ha", "setting": "[2]; 250 g ai/ha", "result": 0, "unit": "%"}, {"measurement": "pest or weed control at 500 g/ha", "setting": "[2]; 500 g ai/ha", "result": 0, "unit": "%"}, {"measurement": "pest or weed control at 31 g/ha", "setting": "[3]; 31 g ai/ha, scale 0 to 100", "result": 30, "unit": "%"}, {"measurement": "pest or weed control at 62 g/ha", "setting": "[3]; 62 g ai/ha, scale 0 to 100", "result": 40, "unit": "%"}, {"measurement": "pest or weed control at 125 g/ha", "setting": "[3]; 125 g ai/ha, scale 0 to 100", "result": 40, "unit": "%"}, {"measurement": "pest or weed control at 250 g/ha", "setting": "[3]; 250 g ai/ha, scale 0 to 100", "result": 60, "unit": "%"}, {"measurement": "pest or weed control at 500 g/ha", "setting": "[3]; 500 g ai/ha, scale 0 to 100 (0 no effect, 100 complete control)", "result": 70, "unit": "%"}, {"measurement": "pest or weed control at 31 g/ha", "setting": "[4]; 31 g ai/ha", "result": 0, "unit": "%"}, {"measurement": "pest or weed control at 62 g/ha", "setting": "[4]; 62 g ai/ha", "result": 0, "unit": "%"}, {"measurement": "pest or weed control at 125 g/ha", "setting": "[4]; 125 g ai/ha", "result": 0, "unit": "%"}, {"measurement": "pest or weed control at 250 g/ha", "setting": "[4]; 250 g ai/ha", "result": 10, "unit": "%"}, {"measurement": "pest or weed control at 500 g/ha", "setting": "[4]; 500 g ai/ha", "result": 20, "unit": "%"}, {"measurement": "Corn plant response rating (crop injury, 0 = no effect, 100 = complete kill) at 31 g/ha", "setting": "corn (Zea mays); 31 g ai/ha", "result": 0, "unit": "%"}, {"measurement": "Corn plant response rating (crop injury, 0 = no effect, 100 = complete kill) at 62 g/ha", "setting": "corn (Zea mays); 62 g ai/ha", "result": 0, "unit": "%"}, {"measurement": "Corn plant response rating (crop injury, 0 = no effect, 100 = complete kill) at 125 g/ha", "setting": "corn (Zea mays); 125 g ai/ha", "result": 0, "unit": "%"}, {"measurement": "Corn plant response rating (crop injury, 0 = no effect, 100 = complete kill) at 250 g/ha", "setting": "corn (Zea mays); 250 g ai/ha", "result": 0, "unit": "%"}, {"measurement": "Corn plant response rating (crop injury, 0 = no effect, 100 = complete kill) at 500 g/ha", "setting": "corn (Zea mays); 500 g ai/ha", "result": 0, "unit": "%"}, {"measurement": "pest or weed control at 31 g/ha", "setting": "[5]; 31 g ai/ha", "result": 0, "unit": "%"}, {"measurement": "pest or weed control at 62 g/ha", "setting": "[5]; 62 g ai/ha", "result": 0, "unit": "%"}, {"measurement": "pest or weed control at 125 g/ha", "setting": "[5]; 125 g ai/ha", "result": 0, "unit": "%"}, {"measurement": "pest or weed control at 250 g/ha", "setting": "[5]; 250 g ai/ha", "result": 0, "unit": "%"}, {"measurement": "pest or weed control at 500 g/ha", "setting": "[5]; 500 g ai/ha", "result": 0, "unit": "%"}, {"measurement": "pest or weed control at 31 g/ha", "setting": "[6]; 31 g ai/ha", "result": 0, "unit": "%"}, {"measurement": "pest or weed control at 62 g/ha", "setting": "[6]; 62 g ai/ha", "result": 0, "unit": "%"}, {"measurement": "pest or weed control at 125 g/ha", "setting": "[6]; 125 g ai/ha", "result": 0, "unit": "%"}, {"measurement": "pest or weed control at 250 g/ha", "setting": "[6]; 250 g ai/ha", "result": 0, "unit": "%"}, {"measurement": "pest or weed control at 500 g/ha", "setting": "[6]; 500 g ai/ha", "result": 5, "unit": "%"}, {"measurement": "pest or weed control at 31 g/ha", "setting": "[7]; 31 g ai/ha", "result": 50, "unit": "%"}, {"measurement": "pest or weed control at 62 g/ha", "setting": "[7]; 62 g ai/ha", "result": 60, "unit": "%"}, {"measurement": "pest or weed control at 125 g/ha", "setting": "[7]; 125 g ai/ha", "result": 60, "unit": "%"}, {"measurement": "pest or weed control at 250 g/ha", "setting": "[7]; 250 g ai/ha", "result": 80, "unit": "%"}, {"measurement": "pest or weed control at 500 g/ha", "setting": "[7]; 500 g ai/ha", "result": 95, "unit": "%"}, {"measurement": "pest or weed control at 31 g/ha", "setting": "[8]; 31 g ai/ha", "result": 0, "unit": "%"}, {"measurement": "pest or weed control at 62 g/ha", "setting": "[8]; 62 g ai/ha", "result": 0, "unit": "%"}, {"measurement": "pest or weed control at 125 g/ha", "setting": "[8]; 125 g ai/ha", "result": 0, "unit": "%"}, {"measurement": "pest or weed control at 250 g/ha", "setting": "[8]; 250 g ai/ha", "result": 0, "unit": "%"}, {"measurement": "pest or weed control at 500 g/ha", "setting": "[8]; 500 g ai/ha", "result": 0, "unit": "%"}, {"measurement": "pest or weed control at 31 g/ha", "setting": "[9]; 31 g ai/ha", "result": 20, "unit": "%"}, {"measurement": "pest or weed control at 62 g/ha", "setting": "[9]; 62 g ai/ha", "result": 30, "unit": "%"}, {"measurement": "pest or weed control at 125 g/ha", "setting": "[9]; 125 g ai/ha", "result": 75, "unit": "%"}, {"measurement": "pest or weed control at 250 g/ha", "setting": "[9]; 250 g ai/ha", "result": 100, "unit": "%"}, {"measurement": "pest or weed control at 31 g/ha", "setting": "[10]", "result": 0, "unit": "%"}, {"measurement": "pest or weed control at 62 g/ha", "setting": "[10]", "result": 0, "unit": "%"}, {"measurement": "pest or weed control at 125 g/ha", "setting": "[10]", "result": 0, "unit": "%"}, {"measurement": "pest or weed control at 250 g/ha", "setting": "[10]", "result": 10, "unit": "%"}, {"measurement": "pest or weed control at 500 g/ha", "setting": "[10]", "result": 30, "unit": "%"}]}
